The test system of this test is rabbit aorta rings. Put plainly: Vasorelaxant effect in vitro (phenylephrine-contracted rabbit aorta rings). To be noted: Oryctolagus cuniculus; concentration reducing height of phenylephrine-induced contraction of rabbit aorta rings by 50%; 0.1% DMSO. How it is done:
Rabbits are stunned by a blow to the back of the neck and are exsanguinated. The aorta is removed, freed of adherent tissue, divided into rings 1.5 mm wide and put singly under tension in 5 ml organ baths containing carbogen-gassed Krebs-Henseleit solution at 37° C. with the following composition (mM): NaCl: 119; KCl: 4.8; CaCl2×2 H2O: 1; MgSO4×7 H2O; 1.4; KH2PO4: 1.2; NaHCO3: 25; glucose: 10. The force of contraction is detected with Statham UC2 cells, amplified and digitized via A/D converters (DAS-1802 HC, Keithley Instruments Munich) and recorded in parallel on chart recorders. A contraction is generated by adding phenylephrine to the bath cumulatively in increasing concentration. After several control cycles, the substance to be investigated is investigated in each further run in increasing dosage in each case, and the height of the contraction is compared with the height of the contraction reached in the last preceding run. The concentration necessary to reduce the height of the control value by 50% (IC50) is calculated from this. The standard application volume is 5 μl, and the DMSO content in the bath solution corresponds to 0.1%.

SMILES strings stand for the structures.

For the compound `Nc1nc(-c2nn(Cc3ccccc3F)c3ncccc23)ncc1OS(=O)(=O)CCCC(F)(F)F` [Example 7], the midpoint of inhibition, the IC50, lay at 440 nM.
Consider `Nc1nc(-c2nn(Cc3ccccc3F)c3ncccc23)ncc1OS(=O)(=O)C1CC1` [Example 4], for which the 50% inhibitory concentration (IC50) (usually the concentration needed to halve the response being measured) turned out to be 710 nM.
For `CCS(=O)(=O)Oc1cnc(-c2nn(Cc3ccccc3F)c3ncccc23)nc1N` [Example 3], the IC50 was determined as 300 nM. This IC50 is about 2.4-fold lower than that of the compound before.
The compound `Nc1nc(-c2nn(Cc3ccccc3F)c3ncccc23)ncc1OS(=O)(=O)c1ccccc1` [Example 10] gave an IC50 of 2020 nM.
`CS(=O)(=O)Oc1cnc(-c2nn(Cc3ccccc3F)c3ncccc23)nc1N` [Example 2] displayed an IC50 of 580 nM.
`Nc1nc(-c2nn(Cc3ccccc3F)c3ncccc23)ncc1OS(=O)(=O)CCl` [Example 1, 4-Amino-2-[1-(2-fluorobenzyl)-1H-pyrazolo[3,4-b]pyridin-3-yl]-5-pyrimidinyl chloromethanesulfonate] showed an IC50 of 700 nM.
`CC(C)S(=O)(=O)Oc1cnc(-c2nn(Cc3ccccc3F)c3ncccc23)nc1N` [Example 5] came in with a half-inhibitory concentration (IC50) of 520 nM.

The values above are taken from patent publication US6919345B2, “Sulfonate substituted pyrazol pyridine derivatives” (Bayer Aktiengesellschaft, priority 2001, dated 2005).
